Experimental data reported in patent US20150094294A1, “COMPOUNDS AND METHODS FOR TREATING MALARIA” (Cellceutix Corporation, priority 2012, published 2015).
pEC50, pIC50: −log10 of the molar value. ≈ marks a conversion by molar mass, not a printed value.

Experiments:
Type in all cases: cell-based
3T3 cells = experiment: Cytotoxicity against 3T3 cells
HepG2 cells = experiment: Cytotoxicity against HepG2 cells
[1] = test system: P. falciparum 3D7 (chloroquine-sensitive); experiment: Anti-malarial activity, P. falciparum 3D7 culture, 72 hour, DNA content by flow cytometry; settings: synchronized ring-stage parasites
Experimental: Numerous compounds were screened in cultures of the malaria parasite P. falciparum 3D7 (chloroquine-sensitive) and DD2 (chloroquine-resistant). The compounds were also screened for toxixcity against 3T3 cells, HepG2 cells, and in a hemolysis assay. In brief, P. falciparum parasites were cultured in RPMI 1640 (Invitrogen) supplemented with Albumax II (Invitrogen). For synchronization, schizont stage parasites were magnet purified using a SuperMACS™ II Cell Separation Unit (Miltenyi Biotech). For IC50 determinations, synchronized ring-stage parasites were plated at 0.5% parasitemia and 8% hematocrit in 96-well plates at a total volume of 50 μL. Serial dilutions of 2× concentration of the respective compound, ranging from 2.5 μM to 20 nM, were added to the wells to bring the total volume up to 100 μL and 4% hematocrit. Compounds were assayed for a 72 hour period, after which the cultures were fixed with a solution of 4% paraformaldehyde and 0.08% glutaraldhyde in PBS. The cells were then permeabilized with 0.25% Triton X-100, and SYTOX Green Nucleic Acid Stain (Invitrogen) in PBS was added to a final concentration of 5 μM. DNA content, as an indicator of parasitemia, was analyzed on an Accuri C6 Flow Cytometer with C-Sampler. IC50 curves were generated using GraphPad Prism (GraphPad Software).

[2] = Cytotoxicity against 3T3 cells; settings: mouse, 3T3 cells; read-out: Cytotoxicity 3T3 EC50
in vitro = experiment: in vitro
[3] = Cytotoxicity against HepG2 cells; settings: human, HepG2 cells; read-out: Cytotoxicity HepG2 EC50
[4] = Plasmodium falciparum, 3D7, 72 h

Compound	pIC50 [1]	EC50 (in vitro) [mg/L]	pIC50 [1, 4]	pEC50 (3T3 cells)	pEC50 (HepG2 cells)	pEC50 [2]	pEC50 [3]
N=C(N)NCCCCC(=O)Nc1cc(F)cc(NC(=O)c2cc(C(=O)Nc3cc(F)cc(NC(=O)CCCCNC(=N)N)c3SCCN)ncn2)c1SCCN [Compound 105]	6.65			4.36	4.09		
N=C(N)NCCCCCC(=O)Nc1cc(C(F)(F)F)cc(NC(=O)c2cc(C(=O)Nc3cc(C(F)(F)F)cc(NC(=O)CCCCCNC(=N)N)c3SCCN)ncn2)c1SCCN [Compound 106]	6.54			4.10	4.05		
CCN(CC)CCN(CCN)c1c(Cl)cc(C(F)(F)F)cc1NC(=O)Nc1cc(C(F)(F)F)cc(Cl)c1N(CCN)CCN(CC)CC [Compound 124]	6.49			4.70	4.62		
CCN(CC)CCN(CCN)c1ccc(C(F)(F)F)cc1NC(=O)Nc1cc(C(F)(F)F)ccc1N(CCN)CCN(CC)CC [Compound 126]	6.18			3.85	3.25		
CCN(CC)CCN(CCN)c1c(F)cc(C(F)(F)F)cc1NC(=O)Nc1cc(C(F)(F)F)cc(F)c1N(CCN)CCN(CC)CC [Compound 127]	6.13			3.88	3.38		
N=C(N)NCCCOc1cccc(-c2cncc(-c3cccc(OCCCNC(=N)N)c3)c2)c1 [Compound 133]	6.93			3.53	3.26		
N=C(N)NCCCc1cccc(-c2cc(-c3cccc(CCCNC(=N)N)c3)ncn2)c1 [Compound 135]	6.88			3.21	3.16		
N=C(N)NCCCOc1cc(OCCCNC(=N)N)c(-c2cccc(F)c2)cc1-c1cccc(F)c1 [Compound 138]	6.65			4.11	4.07		
N=C(N)N1CCN(c2ccc(-c3cccc(-c4ccc(N5CCN(C(=N)N)CC5)nc4)c3)cn2)CC1 [Compound 258]		545 (≈ 1120 µM)	7.24			3.78	3.52
Cn1c(-c2ccc(N3CCNCC3)cc2)cnc1-c1ccc(N2CCNCC2)cc1 [Compound 259]		287 (≈ 713 µM)	< 7.00			< 3.00	< 3.00
NCCCc1ccc(-c2ccc(-c3ccc(CCCN)cc3)s2)cc1 [Compound 263]				5.22	6.00		
C[N+]1(C)CCN(c2ccc(-c3ccc(-c4ccc(N5CC[N+](C)(C)CC5)cc4)o3)cc2)CC1 [Compound 264]				< 3.00	< 3.00		
c1cc2sc3ccc(NC4CCNCC4)cc3c2cc1NC1CCNCC1 [Compound 295]				< 3.00	< 3.00		
CN(C)C1CCN(c2ccc3sc4ccc(N5CCC(N(C)C)CC5)cc4c3c2)CC1 [Compound 297]				3.29	3.17		
CCn1c2ccc(N3CCC(N(C)C)CC3)cc2c2cc(N3CCC(N(C)C)CC3)ccc21 [Compound 298]				< 3.00	< 3.00		
NCCSc1c(NC(=O)c2cccnc2)cc(C(F)(F)F)cc1NC(=O)c1cc(C(=O)Nc2cc(C(F)(F)F)cc(NC(=O)c3cccnc3)c2SCCN)ncn1 [Compound 315]				4.68	4.47		

Continued, in another order:

pIC50 [1]	EC50 (in vitro) [mg/L]	pIC50 [1, 4]	Compound	pEC50 (3T3 cells)	pEC50 (HepG2 cells)	pEC50 [2]	pEC50 [3]
	> 1000	7.11	Cn1c(-c2ccc(N3CCN(C(=N)N)CC3)cc2)cnc1-c1ccc(N2CCN(C(=N)N)CC2)cc1 [Compound 261]			< 3.00	3.03
	317 (≈ 657 µM)	6.97	N=C(N)NCCSc1ccc(NC(=O)Nc2cccc(CCNC(=N)N)c2)cc1C(F)(F)F [Compound 270]			3.40	3.15
	65 (≈ 114 µM)	5.95	COc1cc(SCCN)c(C(F)(F)F)cc1NC(=O)Nc1ccc(SCCNC(=N)N)c(C(F)(F)F)c1 [Compound 276]			4.38	3.81
	> 1000	6.11	NCCCOc1cc(OCCCN)cc(-c2ccc3c(c2)c2cc(-c4cc(OCCCN)cc(OCCCN)c4)ccc2n3CCCN)c1 [Compound 279]			3.36	3.05
	2 (≈ 3.87 µM)	< 7.00	CC1(C)c2cc(-c3cccc(CCNC(=N)N)c3)ccc2-c2ccc(-c3cccc(CCNC(=N)N)c3)cc21 [Compound 284]			5.22	4.55
	251 (≈ 292 µM)	< 7.00	N#Cc1cccc(C(=O)Nc2cc(NC(=O)c3cc(C(=O)Nc4cc(NC(=O)c5cccc(C#N)c5)cc(C(F)(F)F)c4)c(OCCN)cc3OCCN)cc(C(F)(F)F)c2)c1 [Compound 299]			3.04	3.04
	< 1	7.54	COc1cc(SCCN)c(C(F)(F)F)cc1NC(=O)c1cc(C(=O)Nc2cc(C(F)(F)F)c(SCCN)cc2OC)ncn1 [Compound 301]			3.15	3.11
	4 (≈ 5.34 µM)	6.48	COc1cc(SCCNC(=N)N)c(C(F)(F)F)cc1NC(=O)c1cc(C(=O)Nc2cc(C(F)(F)F)c(SCCNC(=N)N)cc2OC)ncn1 [Compound 302]			3.16	< 3.00
	62 (≈ 86.3 µM)	7.47	CC(=O)Nc1cc(C(F)(F)F)cc(NC(=O)c2cc(C(=O)Nc3cc(C(F)(F)F)cc(NC(C)=O)c3SCCN)ncn2)c1SCCN [Compound 303]			3.05	< 3.00
	3 (≈ 3.56 µM)	7.16	NCCSc1c(NC(=O)c2ccccc2)cc(C(F)(F)F)cc1NC(=O)c1cc(C(=O)Nc2cc(C(F)(F)F)cc(NC(=O)c3ccccc3)c2SCCN)ncn1 [Compound 304]			3.03	3.03
	223 (≈ 254 µM)	7.11	NCCSc1c(NC(=O)c2cccc(F)c2)cc(C(F)(F)F)cc1NC(=O)c1cc(C(=O)Nc2cc(C(F)(F)F)cc(NC(=O)c3cccc(F)c3)c2SCCN)ncn1 [Compound 305]			3.05	3.04
	793 (≈ 792 µM)	< 7.00	NCCSc1c(NC(=O)c2cccc(Br)c2)cc(C(F)(F)F)cc1NC(=O)c1cc(C(=O)Nc2cc(C(F)(F)F)cc(NC(=O)c3cccc(Br)c3)c2SCCN)ncn1 [Compound 306]			3.09	3.09
	757 (≈ 848 µM)	7.39	N#Cc1ccc(C(=O)Nc2cc(C(F)(F)F)cc(NC(=O)c3cc(C(=O)Nc4cc(C(F)(F)F)cc(NC(=O)c5ccc(C#N)cc5)c4SCCN)ncn3)c2SCCN)cc1 [Compound 307]			3.07	3.05
	2 (≈ 2.62 µM)	< 7.00	N#Cc1ccc(C(=O)Nc2cc(C(F)(F)F)cc(NC(=O)c3cc(C(=O)Nc4cc(C(F)(F)F)cc(N)c4SCCN)ncn3)c2SCCN)cc1 [Compound 308]			4.66	4.47
	81 (≈ 89.7 µM)	7.08	COc1ccc(C(=O)Nc2cc(C(F)(F)F)cc(NC(=O)c3cc(C(=O)Nc4cc(C(F)(F)F)cc(NC(=O)c5ccc(OC)cc5)c4SCCN)ncn3)c2SCCN)cc1 [Compound 310]			< 3.00	3.05
	> 1000	< 7.00	c1cc(N2CCNCC2)ccc1-c1ccc(N2CCNCC2)cc1 [Compound 317]			3.26	3.30
	> 1000	< 7.00	NCCCc1ccc(-c2ccc(CCCN)cc2)cc1 [Compound 318]			3.20	< 3.00
	52 (≈ 109 µM)	< 7.00	c1cc(-c2ccc(N3CCNCC3)nc2)cc(-c2cccc(-c3ccc(N4CCNCC4)nc3)c2)c1 [Compound 319]			4.24	4.08
